# Test system: choroidal neovascularization (CNV)
# Assay: Laser-induced choroidal neovascularization (CNV) in mice, rupture of Bruch's membrane
# Type: in vivo, C57BL/J mice
# Settings: single 5 μl intravitreal injection immediately after laser, day 14 post-laser
# Source text: Choroidal neovascularization (CNV) was induced in C57BL/J mice by rupturing Bruch's membrane via focal laser photocoagulation (FIG. 3). (Tobe T, et al., AM. J. PATHOL., 153:1641-1646 (1998)). Three to four retinal burns were placed in randomly assigned eye using the Alcon 532 nm EyeLite laser (75 μm spot size, 0.1 seconds duration, 120 mW) with a slit lamp delivery system. The laser bums were used to generate a rupture in Bruch's membrane, which was indicated ophthalmoscopically by the formation of a bubble under the retina. Only mice with laser burns that produced three bubbles per eye were included in the study. Burns were typically placed at the 3, 6, 9 or 12 o'clock positions in the posterior pole of the retina, avoiding the branch retinal arteries and veins.
# Each mouse was randomly assigned into one of the following treatment groups after laser: noninjected controls, sham-injected controls, vehicle-injected mice, or one of three anecortave acetate-injected groups. Control mice received laser photocoagulation in both eyes, where one eye received a sham injection, i.e. a pars plana needle puncture. For intravitreal-injected animals, one laser-treated eye received a 5 μl intravitreal injection of 0%, 0.1%, 1%, or 10% anecortave acetate. The intravitreal injection was performed immediately after laser photocoagulation.
# Fourteen days post-laser, all mice were euthanized and systemically perfused with fluorescein-labeled dextran. Eyes were then harvested and prepared as choroidal flat mounts, and the 2-dimensional CNV area was quantified with computerized digital analysis. (Mori K., et al., AM. J. PATHOL. 159:313-320 (2001)). The median CNV area/burn per mouse per treatment was used for statistical analysis; P≦0.05 was considered significant.
compound,measurement,setting,value
"CC(=O)OCC(=O)[C@@]1(O)CC[C@H]2[C@@H]3CCC4=CC(=O)CC[C@]4(C)C3=CC[C@@]21C [anecortave acetate, 4,9(11)-pregnadien-17α,21-diol-3,20-dione-21-acetate]",CNV versus vehicle-injected controls,0.1% anecortave acetate,No difference
same,CNV versus vehicle-injected controls,1% anecortave acetate,No difference
same,inhibition of CNV (median CNV area/burn) as compared to vehicle-injected eyes,"10% anecortave acetate, Mann-Whitney P<0.001",57.8%

# Source: US20050239760A1, “Angiostatic agents and methods and compositions for controlling ocular hypertension” (Alcon, Inc., priority 2004, published 2005)
